According to ChEMBL document CHEMBL5233241, “A medicinal chemistry perspective of drug repositioning: Recent advances and challenges in drug discovery” (Eur J Med Chem, 2020):
Counter-ions that a name gives are not always drawn.

Legend:
[1] = test system: Plasmodium; assay: Antimalarial activity against Plasmodium; format: functional, organism-based
[2] = molecular target: T1, Tyrosinase (Agaricus bisporus, UniProt O42713); assay: Inhibition of mushroom tyrosinase
T1 sequence (O42713 whole entry): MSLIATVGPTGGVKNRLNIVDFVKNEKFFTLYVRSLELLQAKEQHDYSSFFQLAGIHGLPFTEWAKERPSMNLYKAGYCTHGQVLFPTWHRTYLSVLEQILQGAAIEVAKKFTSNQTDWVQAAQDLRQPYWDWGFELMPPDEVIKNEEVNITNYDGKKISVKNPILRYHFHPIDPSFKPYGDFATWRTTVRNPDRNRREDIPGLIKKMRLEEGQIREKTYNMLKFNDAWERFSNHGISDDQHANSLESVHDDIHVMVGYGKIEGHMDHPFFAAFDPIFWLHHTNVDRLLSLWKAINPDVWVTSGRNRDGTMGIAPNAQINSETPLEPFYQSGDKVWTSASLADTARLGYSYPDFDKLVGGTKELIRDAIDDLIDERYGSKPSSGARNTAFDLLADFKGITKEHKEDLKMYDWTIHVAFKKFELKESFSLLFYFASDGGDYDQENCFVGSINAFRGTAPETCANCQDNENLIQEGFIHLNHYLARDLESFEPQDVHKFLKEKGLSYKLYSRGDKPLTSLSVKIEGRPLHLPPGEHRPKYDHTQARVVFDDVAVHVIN

[3] = Inhibition of melanin production in mouse B16 cells assessed as reduction in melanin content at up to 20 uM relative to control; format: functional
[4] = test system: Mus musculus; assay: Anti-alzheimer activity against APP/PSEN1 transgenic mouse model assessed as fold reduction in amyloid beta plaques at 10 mg/kg administered intranasally every other day for 2 months; format: functional; details: route nas, 1460 h
[5] = Cytotoxicity against human OVSAHO cells incubated for 72 hrs by SRB assay; format: functional, cell-based
[6] = Cytotoxicity against human COV318 cells incubated for 120 hrs by SRB assay; format: functional, cell-based; details: COV318, 120 h
[7] = Cytotoxicity against human COV362 cells incubated for 120 hrs by SRB assay; format: functional, cell-based; details: COV362, 120 h
[8] = test system: OVCAR-4; assay: Cytotoxicity against human OVCAR-4 cells incubated for 72 hrs by SRB assay; format: functional, cell-based; details: OVCAR-4, 72 h
[9] = test system: OVCAR-3; assay: Cytotoxicity against human OVCAR-3 cells incubated for 72 hrs by SRB assay; format: functional, cell-based; details: OVCAR-3, 72 h
[10] = Cytotoxicity against human Huh-7 cells; format: toxicity, cell-based
[11] = test system: Middle East respiratory syndrome-related coronavirus; assay: Antiviral activity against MERS-CoV/KOR/KNIH/002_05_2015 infected in human Huh-7 cells assessed as reduction in virus-induced cytopathic effect incubated for 3 days by CellTiter 96 aqueous one solution cell proliferation assay; format: functional, organism-based; details: KOR/KNIH/002_05_2015, Huh-7, 72 h
[12] = test system: Middle East respiratory syndrome-related coronavirus; assay: Antiviral activity against MERS-CoV isolate EMC/2012 infected in human Huh-7 cells assessed as reduction in virus-induced cytopathic effect incubated for 2 days by MTS assay; format: functional, organism-based; details: EMC/2012, Huh-7, 48 h
[13] = test system: SARS-CoV; assay: Antiviral activity against SARS-CoV isolate Frankfurt-1 infected in Vero E6 cells assessed as reduction in virus-induced cytopathic effect incubated for 3 days by MTS assay; format: functional, organism-based; details: Severe acute respiratory syndrome-related coronavirus, Frankfurt-1, Vero C1008, 72 h
[14] = test system: Human coronavirus 229E; assay: Antiviral activity against hCoV-229E expressing GFP infected in human Huh-7 cells assessed as reduction in virus-induced cytopathic effect incubated for 24 hrs by MTS assay; format: functional, organism-based; details: Huh-7, 24 h
[15] = test system: Mus musculus; assay: Anti-alzheimer activity against old APP/PS1 mouse model assessed as reduction in amyloid beta (1 to 42 residues) level at 100 mg/kg, po administered daily and measured for 14 days; format: functional; design: scale not given: the % may be the effect or the level left; details: time 14 day
[16] = test system: Mus musculus; assay: Anti-alzheimer activity against old APP/PS1 mouse model assessed as reduction in amyloid beta (1 to 40 residues) level at 100 mg/kg, po administered daily and measured for 14 days; format: functional; design: scale not given: the % may be the effect or the level left; details: time 14 day
[17] = test system: Mus musculus; assay: Anti-alzheimer activity against young APP/PS1 mouse model assessed as reduction in amyloid beta (1 to 40 residues) level at 100 mg/kg, po administered daily and measured for 14 days; format: functional; design: scale not given: the % may be the effect or the level left; details: time 14 day
[18] = test system: Mus musculus; assay: Anti-alzheimer activity against young APP/PS1 mouse model assessed as reduction in amyloid beta (1 to 42 residues) level at 100 mg/kg, po administered daily and measured for 14 days; format: functional; design: scale not given: the % may be the effect or the level left; details: time 14 day
[19] = test system: Mus musculus; assay: Anti-alzheimer activity against APP/PS1 mouse model assessed as reduction in insoluble amyloid beta level at 100 mg/kg, po administered daily and measured for 90 days; format: functional; design: scale not given: the % may be the effect or the level left; details: time 90 day
[20] = test system: Human coronavirus 229E; assay: Antiviral activity against hCoV-229E; format: functional, organism-based
[21] = test system: SARS-CoV; assay: Antiviral activity against SARS-CoV; format: functional, organism-based; details: Severe acute respiratory syndrome-related coronavirus
[22] = test system: B16-F10; assay: Inhibition of melanin production in mouse B16-F10 cells assessed as reduction in melanin content at 50 uM relative to control; format: functional
[23] = test system: Dengue virus; assay: Antiviral activity against DENV assessed as inhibition of viral replication relative to control; format: functional
[24] = Inhibition of Wnt signalling in human BT-20 cells; format: cell-based
[25] = Inhibition of Wnt signalling in HEK293T cells; format: cell-based; details: Homo sapiens, HEK-293T
[26] = test system: Plasmodium falciparum; assay: Antimalarial activity against Plasmodium falciparum W2; format: functional, organism-based

## CN1CCC[C@@H]1CCO[C@](C)(c1ccccc1)c1ccc(Cl)cc1 [CLEMASTINE FUMARATE]
[1]
  IC50: 2.2 µM

## N=C(N)N/N=C1C=C/C(=N\NC(N)=S)C=C\1 [AMBAZONE]
[2]
  IC50: 15 µM
[3]
  inhibition (INH): 20%

## CCCCc1nc(Cl)c(CO)n1Cc1ccc(-c2ccccc2-c2nnn[nH]2)cc1 [LOSARTAN]
[4]
  fold change (FC): 3.7

## CCN(CC)CCOc1ccc(/C(=C(/Cl)c2ccccc2)c2ccccc2)cc1 [ENCLOMIPHENE CITRATE]
[1]
  IC50: 0.22 µM

## Cn1cnc([N+](=O)[O-])c1Sc1ncnc2nc[nH]c12 [AZATHIOPRINE]
[2]
  Ki: > 1000 µM

## O=C(c1ccc(OCCN2CCCCC2)cc1)c1c(-c2ccc(O)cc2)sc2cc(O)ccc12 [RALOXIFENE HYDROCHLORIDE]
[1]
  IC50: < 0.5 µM

## O=c1cc[nH]c(=S)[nH]1 [THIOURACIL]
[2]
  IC50: 128 µM

## C[C@]12C=CC(=O)C=C1CC[C@@H]1[C@@H]2[C@@H](O)C[C@@]2(C)[C@H]1CC[C@]2(O)C(=O)CO [PREDNISOLONE]
[5]
  IC50: 1.1 µM
[6]
  IC50: 1.1 µM
[7]
  IC50: 1.1 µM
[8]
  IC50: 1.1 µM
[9]
  IC50: 1.1 µM

## Cn1cc[nH]c1=S [METHIMAZOLE]
[2]
  IC50: 114 µM

## CN1CCN(c2nc(C3=C(c4c[nH]c5ccccc45)C(=O)NC3=O)c3ccccc3n2)CC1 [SOTRASTAURIN]
[10]
  CC50: > 50 µM
[11]
  EC50: 9.7 µM

## COc1ccc(C2=NC(c3ccc(Cl)cc3)C(c3ccc(Cl)cc3)N2C(=O)N2CCNC(=O)C2)c(OC(C)C)c1 (stereo unspecified)
[10]
  CC50: 26.8 µM
[11]
  EC50: 36.9 µM

## Cc1cccc(C)c1OCC(=O)N[C@@H](Cc1ccccc1)[C@@H](O)C[C@H](Cc1ccccc1)NC(=O)[C@H](C(C)C)N1CCCNC1=O [LOPINAVIR]
[12]
  EC50: 8 µM

## OC[C@H]1O[C@@H](n2cnc3c(S)ncnc32)[C@H](O)[C@@H]1O [THIOINOSINE]
[2]
  Ki: 8 µM

## CN(C)CCCN1c2ccccc2Sc2ccc(Cl)cc21 [CHLORPROMAZINE]
[12]
  EC50: 4.9 µM
[13]
  EC50: 8.8 µM
[14]
  EC50: 2.5 µM

## C=C(c1ccc(C(=O)O)cc1)c1cc2c(cc1C)C(C)(C)CCC2(C)C [BEXAROTENE]
[15]
  Activity: 25%
[16]
  Activity: 25%
[17]
  Activity: 25%
[18]
  Activity: 25%
[19]
  Activity: 30%

## COc1ccc2[nH]c([S@@+]([O-])Cc3ncc(C)c(OC)c3C)nc2c1
[1]
  IC50: 0.29 µM

## CN1CCN(CCOc2cc(OC3CCOCC3)c3c(Nc4c(Cl)ccc5c4OCO5)ncnc3c2)CC1 [SARACATINIB]
[20]
  EC50: 5.1 µM
[21]
  EC50: 2.4 µM
[10]
  CC50: > 50 µM

## CC(=O)c1ccc2c(c1)N(CCCN1CCN(CCO)CC1)c1ccccc1S2 [ACETOPHENAZINE]
[10]
  CC50: 23.6 µM
[11]
  EC50: 11.2 µM

## OCCOCCN1CCN(C(c2ccccc2)c2ccc(Cl)cc2)CC1 (stereo unspecified) [HYDROXYZINE]
[10]
  CC50: > 50 µM
[11]
  EC50: 14.4 µM

## Nc1nc2nc[nH]c2c(=S)[nH]1 [THIOGUANINE]
[2]
  Ki: 52 µM
[22]
  inhibition at 50 µM: 57%

## CN(C)CC/C=C1\c2ccccc2CSc2ccccc21 [DOTHIEPIN HYDROCHLORIDE]
[10]
  CC50: 28.9 µM
[11]
  EC50: 3.4 µM

## Cc1cc(=O)[nH]c(=S)[nH]1 [METHYLTHIOURACIL]
[2]
  IC50: 142 µM

## CN(C)C(=O)C(CCN1CCC(O)(c2ccc(Cl)cc2)CC1)(c1ccccc1)c1ccccc1 [LOPERAMIDE]
[12]
  EC50: 4.8 µM
[13]
  EC50: 5.9 µM
[14]
  EC50: 4 µM

## CCOC(=O)n1ccn(C)c1=S [CARBIMAZOLE]
[2]
  IC50: 186 µM

## COc1ccc2[nH]c([S+]([O-])Cc3ncc(C)c(OC)c3C)nc2c1 (stereo unspecified) [OMEPRAZOLE]
[1]
  IC50: < 1 µM

## CC(=O)Nc1ccc(/C=N/NC(N)=S)cc1 [AMITHIOZONE]
[2]
  IC50: 14 µM

## CCN(CC)CCCC(C)Nc1ccnc2cc(Cl)ccc12 (stereo unspecified) [CHLOROQUINE]
[12]
  EC50: 3 µM
[13]
  EC50: 4.1 µM

## C/C=C/C[C@@H](C)[C@@H](O)[C@H]1C(=O)N[C@@H](CC)C(=O)N(C)CC(=O)N(C)[C@@H](CC(C)C)C(=O)N[C@@H](C(C)C)C(=O)N(C)[C@@H](CC(C)C)C(=O)N[C@@H](C)C(=O)N[C@H](C)C(=O)N(C)[C@@H](CC(C)C)C(=O)N(C)[C@@H](CC(C)C)C(=O)N(C)[C@@H](C(C)C)C(=O)N1C [CYCLOSPORINE]
[1]
  IC50: 1.7 µM

## Sc1ncnc2nc[nH]c12 [MERCAPTOPURINE ANHYDROUS]
[2]
  Ki: 16 µM

## COc1ccc2c(c1)N(C[C@H](C)CN(C)C)c1ccccc1S2 [LEVOMEPROMAZINE]
[10]
  CC50: 24.5 µM
[11]
  EC50: 2.5 µM

## N=C(N)c1ccc(OCCCCCOc2ccc(C(=N)N)cc2)cc1
[1]
  IC50: < 0.5 µM

## C=C[C@H]1CN2CC[C@H]1C[C@H]2[C@H](O)c1ccnc2ccc(OC)cc12 [QUININE]
[23]
  inhibition (INH): 80%

## CCCc1nc2c(C)cc(-c3nc4ccccc4n3C)cc2n1Cc1ccc(-c2ccccc2C(=O)O)cc1
[1]
  IC50: 0.025 µM

## CC(C)/N=c1\cc2n(-c3ccc(Cl)cc3)c3ccccc3nc-2cc1Nc1ccc(Cl)cc1 [CLOFAZIMINE]
[24]
  IC50: 7 µM
[25]
  IC50: 6 µM

## CCCc1cc(=O)[nH]c(=S)[nH]1 [PROPYLTHIOURACIL]
[2]
  IC50: 170 µM

## CCN(CC)Cc1cc(Nc2ccnc3cc(Cl)ccc23)ccc1O
[11]
  EC50: 2.1 µM

## COc1ccc(-c2nc(-c3cc(C(F)(F)F)cc(C(F)(F)F)c3)n(Cc3ccc(C(N)=O)cc3)c2-c2ccc(OC)cc2)cc1
[26]
  EC50: 4.5 µM
